# Measured values published in ChEMBL document CHEMBL5532657, “Serendipitous discovery of Class I HDAC inhibitors from rational design of molecular glue degraders targeting HDAC” (Eur J Med Chem, 2024).
# pIC50: −log10 of the molar value. Calls of active or inactive are those of the source. No cut-off for these calls is given here.
# Legend:
# HCT-116 = test: Antiproliferative activity against human HCT-116 cells assessed as cell growth inhibition at 5 uM incubated for 48 hrs by CCK-8 assay; type: functional, cell-based
# Histone deacetylase 11 = biological target: T1, Histone deacetylase 11 (Homo sapiens, UniProt Q96DB2); test: Inhibition of HDAC11 in human HeLa cells nuclear extract using BocLys(acetyl)-AMC as substrate incubated for 1 hr by fluorescence plate reader analysis; type: subcellular, Nucleus
# T1 sequence (Q96DB2 whole entry): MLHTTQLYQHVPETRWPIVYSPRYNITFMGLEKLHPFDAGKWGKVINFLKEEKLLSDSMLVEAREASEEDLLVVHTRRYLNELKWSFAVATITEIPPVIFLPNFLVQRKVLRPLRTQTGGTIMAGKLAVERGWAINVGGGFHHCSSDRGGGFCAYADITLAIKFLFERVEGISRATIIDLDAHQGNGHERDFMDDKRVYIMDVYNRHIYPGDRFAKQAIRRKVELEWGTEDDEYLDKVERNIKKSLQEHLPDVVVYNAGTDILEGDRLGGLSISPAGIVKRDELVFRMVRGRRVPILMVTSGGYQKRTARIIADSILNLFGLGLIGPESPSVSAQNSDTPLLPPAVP
# Histone deacetylase 2 = Histone deacetylase 2 (Homo sapiens, UniProt Q92769); test: Inhibition of HDAC2 in human HeLa cells nuclear extract using BocLys(acetyl)-AMC as substrate incubated for 1 hr by fluorescence plate reader analysis; type: subcellular, Nucleus
# Histone deacetylase 2, sequence (Q92769 whole entry): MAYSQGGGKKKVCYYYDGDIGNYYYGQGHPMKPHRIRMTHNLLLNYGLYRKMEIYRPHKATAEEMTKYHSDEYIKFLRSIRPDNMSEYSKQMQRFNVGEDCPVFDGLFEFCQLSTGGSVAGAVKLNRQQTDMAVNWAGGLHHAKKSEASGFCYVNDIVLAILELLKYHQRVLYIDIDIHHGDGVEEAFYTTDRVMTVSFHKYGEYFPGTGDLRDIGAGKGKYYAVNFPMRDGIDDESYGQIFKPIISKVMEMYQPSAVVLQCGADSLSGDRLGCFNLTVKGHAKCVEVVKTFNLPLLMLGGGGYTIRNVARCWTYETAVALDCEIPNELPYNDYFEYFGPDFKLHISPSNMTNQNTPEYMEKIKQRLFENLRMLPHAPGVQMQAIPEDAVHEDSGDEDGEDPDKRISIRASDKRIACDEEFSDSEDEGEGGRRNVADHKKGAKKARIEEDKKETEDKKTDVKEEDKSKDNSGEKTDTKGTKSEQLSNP
# RPMI-8226 = test: Antiproliferative activity against human RPMI-8226 cells assessed as cell growth inhibition incubated for 48 hrs by CCK-8 assay; type: functional, cell-based; details: RPMI-8226, 48 h
# A549 = test: Antiproliferative activity against human A549 cells assessed as cell growth inhibition at 5 uM incubated for 48 hrs by CCK-8 assay; type: functional, cell-based
# Histone deacetylase 1 = Histone deacetylase 1 (Homo sapiens, UniProt Q13547); test: Induction of HDAC1 degradation in human RS4-11 cells at 0.5 to 10 uM incubated for 12 hrs by Western blotting analysis; type: cell-based; details: dose 0.5-10 µM
# Histone deacetylase 1, sequence (Q13547 whole entry): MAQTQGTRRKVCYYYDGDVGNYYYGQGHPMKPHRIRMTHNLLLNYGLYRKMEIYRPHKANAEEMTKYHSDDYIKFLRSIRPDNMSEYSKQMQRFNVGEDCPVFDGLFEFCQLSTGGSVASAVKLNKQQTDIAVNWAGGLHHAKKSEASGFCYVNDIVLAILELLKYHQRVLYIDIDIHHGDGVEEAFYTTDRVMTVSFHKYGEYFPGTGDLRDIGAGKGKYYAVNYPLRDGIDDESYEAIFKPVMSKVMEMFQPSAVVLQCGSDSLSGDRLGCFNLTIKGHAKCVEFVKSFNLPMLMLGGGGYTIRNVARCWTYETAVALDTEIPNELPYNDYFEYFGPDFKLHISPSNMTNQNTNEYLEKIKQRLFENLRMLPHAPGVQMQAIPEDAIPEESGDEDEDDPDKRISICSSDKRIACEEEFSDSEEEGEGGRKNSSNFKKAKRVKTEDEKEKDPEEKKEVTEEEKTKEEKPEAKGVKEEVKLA
# RS4-11 = test: Antiproliferative activity against human RS4-11 cells assessed as cell growth inhibition incubated for 48 hrs by CCK-8 assay; type: functional, cell-based; details: RS4-11, 48 h
# Histone deacetylase 9 = Histone deacetylase 9 (Homo sapiens, UniProt Q9UKV0); test: Inhibition of HDAC9 in human HeLa cells nuclear extract using BocLys(acetyl)-AMC as substrate incubated for 1 hr by fluorescence plate reader analysis; type: subcellular, Nucleus
# Histone deacetylase 9, sequence (Q9UKV0 whole entry): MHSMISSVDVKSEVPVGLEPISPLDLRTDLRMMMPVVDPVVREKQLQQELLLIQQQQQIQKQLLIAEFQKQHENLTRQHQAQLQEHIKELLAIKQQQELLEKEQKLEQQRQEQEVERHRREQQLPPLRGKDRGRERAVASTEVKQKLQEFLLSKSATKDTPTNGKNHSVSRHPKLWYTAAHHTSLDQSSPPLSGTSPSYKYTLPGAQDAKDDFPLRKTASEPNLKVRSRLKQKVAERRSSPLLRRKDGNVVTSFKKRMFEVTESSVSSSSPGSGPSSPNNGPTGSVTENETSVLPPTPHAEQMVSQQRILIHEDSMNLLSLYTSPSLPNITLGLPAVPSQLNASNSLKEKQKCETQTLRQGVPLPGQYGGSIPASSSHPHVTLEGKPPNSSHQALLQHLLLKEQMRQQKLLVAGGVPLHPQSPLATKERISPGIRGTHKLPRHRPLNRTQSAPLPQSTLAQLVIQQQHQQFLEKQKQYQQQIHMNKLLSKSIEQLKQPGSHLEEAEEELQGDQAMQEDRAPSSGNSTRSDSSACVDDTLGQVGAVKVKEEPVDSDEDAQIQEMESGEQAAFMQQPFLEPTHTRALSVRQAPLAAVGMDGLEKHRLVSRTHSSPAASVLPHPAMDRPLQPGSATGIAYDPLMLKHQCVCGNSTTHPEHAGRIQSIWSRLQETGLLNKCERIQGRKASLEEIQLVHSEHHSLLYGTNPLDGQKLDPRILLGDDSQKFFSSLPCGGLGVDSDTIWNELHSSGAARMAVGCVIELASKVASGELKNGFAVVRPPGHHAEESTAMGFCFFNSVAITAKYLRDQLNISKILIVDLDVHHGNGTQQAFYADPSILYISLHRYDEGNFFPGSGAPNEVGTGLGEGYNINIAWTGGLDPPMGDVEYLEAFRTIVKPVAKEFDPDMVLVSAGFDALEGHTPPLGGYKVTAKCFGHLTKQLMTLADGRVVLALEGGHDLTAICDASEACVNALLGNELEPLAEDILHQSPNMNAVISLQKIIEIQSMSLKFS
# HeLa = test: Antiproliferative activity against human HeLa cells assessed as cell growth inhibition at 5 uM incubated for 48 hrs by CCK-8 assay; type: functional, cell-based
# Histone deacetylase 7 = biological target: T2, Histone deacetylase 7 (Homo sapiens, UniProt Q8WUI4); test: Inhibition of HDAC7 in human HeLa cells nuclear extract using BocLys(acetyl)-AMC as substrate incubated for 1 hr by fluorescence plate reader analysis; type: subcellular, Nucleus
# T2 sequence (Q8WUI4 whole entry): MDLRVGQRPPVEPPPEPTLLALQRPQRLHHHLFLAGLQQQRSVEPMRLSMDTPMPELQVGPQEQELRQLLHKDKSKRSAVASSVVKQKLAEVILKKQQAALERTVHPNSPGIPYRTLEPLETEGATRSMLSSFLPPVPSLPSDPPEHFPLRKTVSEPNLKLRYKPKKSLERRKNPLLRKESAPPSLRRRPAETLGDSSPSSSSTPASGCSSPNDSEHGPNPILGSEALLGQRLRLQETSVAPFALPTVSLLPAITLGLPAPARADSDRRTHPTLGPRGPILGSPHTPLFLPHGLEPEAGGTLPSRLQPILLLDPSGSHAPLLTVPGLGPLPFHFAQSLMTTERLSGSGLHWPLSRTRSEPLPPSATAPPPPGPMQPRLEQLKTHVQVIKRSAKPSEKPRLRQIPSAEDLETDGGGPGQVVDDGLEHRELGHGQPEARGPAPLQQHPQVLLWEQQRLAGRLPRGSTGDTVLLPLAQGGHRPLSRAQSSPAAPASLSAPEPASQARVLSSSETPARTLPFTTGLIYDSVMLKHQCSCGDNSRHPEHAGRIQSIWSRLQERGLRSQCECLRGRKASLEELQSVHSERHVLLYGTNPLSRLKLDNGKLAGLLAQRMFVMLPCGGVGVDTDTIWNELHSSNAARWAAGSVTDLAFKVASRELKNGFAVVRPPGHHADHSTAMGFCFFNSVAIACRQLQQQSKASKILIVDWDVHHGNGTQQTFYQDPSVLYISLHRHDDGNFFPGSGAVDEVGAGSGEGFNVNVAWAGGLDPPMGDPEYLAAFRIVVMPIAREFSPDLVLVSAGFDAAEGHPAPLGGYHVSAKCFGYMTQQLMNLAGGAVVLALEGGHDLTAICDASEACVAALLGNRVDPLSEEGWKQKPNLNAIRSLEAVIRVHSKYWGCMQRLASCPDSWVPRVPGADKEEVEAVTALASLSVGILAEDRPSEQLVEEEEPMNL
# [1] = biological target: T3, Protein deacetylase HDAC6 (Homo sapiens) (UniProt Q9UBN7); test: Induction of HDAC6 degradation in human RS4-11 cells at 0.5 to 10 uM incubated for 12 hrs by Western blotting analysis; type: cell-based; details: dose 0.5-10 µM
# T3 sequence (whole entry): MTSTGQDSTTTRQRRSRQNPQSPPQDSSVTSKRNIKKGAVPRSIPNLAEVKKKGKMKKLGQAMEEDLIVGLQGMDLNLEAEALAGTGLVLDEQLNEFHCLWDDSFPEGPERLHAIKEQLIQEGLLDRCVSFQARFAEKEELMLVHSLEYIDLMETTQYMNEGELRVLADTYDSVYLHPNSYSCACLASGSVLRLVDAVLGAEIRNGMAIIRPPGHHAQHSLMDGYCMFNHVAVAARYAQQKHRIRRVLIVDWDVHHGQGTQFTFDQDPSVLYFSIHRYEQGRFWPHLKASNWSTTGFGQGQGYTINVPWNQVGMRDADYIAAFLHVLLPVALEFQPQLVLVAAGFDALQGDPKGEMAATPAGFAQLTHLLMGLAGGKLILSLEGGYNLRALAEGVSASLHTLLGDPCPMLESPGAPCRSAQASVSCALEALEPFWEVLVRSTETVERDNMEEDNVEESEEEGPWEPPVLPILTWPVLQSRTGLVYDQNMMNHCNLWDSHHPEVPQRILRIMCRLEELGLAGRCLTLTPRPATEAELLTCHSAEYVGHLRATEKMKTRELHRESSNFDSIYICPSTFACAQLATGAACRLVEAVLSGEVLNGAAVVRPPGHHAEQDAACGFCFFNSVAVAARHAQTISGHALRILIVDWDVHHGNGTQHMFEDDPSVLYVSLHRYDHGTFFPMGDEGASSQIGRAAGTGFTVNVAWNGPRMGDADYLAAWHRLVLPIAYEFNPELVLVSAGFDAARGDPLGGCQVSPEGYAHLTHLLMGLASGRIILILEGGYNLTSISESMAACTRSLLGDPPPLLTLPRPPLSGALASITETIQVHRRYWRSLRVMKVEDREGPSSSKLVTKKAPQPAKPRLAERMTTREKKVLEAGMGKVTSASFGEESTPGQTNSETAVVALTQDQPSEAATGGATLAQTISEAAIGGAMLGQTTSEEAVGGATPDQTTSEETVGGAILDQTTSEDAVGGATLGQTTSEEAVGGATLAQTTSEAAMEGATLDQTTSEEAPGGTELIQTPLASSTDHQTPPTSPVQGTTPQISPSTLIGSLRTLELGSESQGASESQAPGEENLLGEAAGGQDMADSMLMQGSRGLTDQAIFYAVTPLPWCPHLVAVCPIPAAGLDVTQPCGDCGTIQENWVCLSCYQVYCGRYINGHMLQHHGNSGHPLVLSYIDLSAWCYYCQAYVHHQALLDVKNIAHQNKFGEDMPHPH
# Histone deacetylase 4 = Histone deacetylase 4 (Homo sapiens, UniProt P56524); test: Inhibition of HDAC4 in human HeLa cells nuclear extract using BocLys(acetyl)-AMC as substrate incubated for 1 hr by fluorescence plate reader analysis; type: subcellular, Nucleus
# Histone deacetylase 4, sequence (P56524 whole entry): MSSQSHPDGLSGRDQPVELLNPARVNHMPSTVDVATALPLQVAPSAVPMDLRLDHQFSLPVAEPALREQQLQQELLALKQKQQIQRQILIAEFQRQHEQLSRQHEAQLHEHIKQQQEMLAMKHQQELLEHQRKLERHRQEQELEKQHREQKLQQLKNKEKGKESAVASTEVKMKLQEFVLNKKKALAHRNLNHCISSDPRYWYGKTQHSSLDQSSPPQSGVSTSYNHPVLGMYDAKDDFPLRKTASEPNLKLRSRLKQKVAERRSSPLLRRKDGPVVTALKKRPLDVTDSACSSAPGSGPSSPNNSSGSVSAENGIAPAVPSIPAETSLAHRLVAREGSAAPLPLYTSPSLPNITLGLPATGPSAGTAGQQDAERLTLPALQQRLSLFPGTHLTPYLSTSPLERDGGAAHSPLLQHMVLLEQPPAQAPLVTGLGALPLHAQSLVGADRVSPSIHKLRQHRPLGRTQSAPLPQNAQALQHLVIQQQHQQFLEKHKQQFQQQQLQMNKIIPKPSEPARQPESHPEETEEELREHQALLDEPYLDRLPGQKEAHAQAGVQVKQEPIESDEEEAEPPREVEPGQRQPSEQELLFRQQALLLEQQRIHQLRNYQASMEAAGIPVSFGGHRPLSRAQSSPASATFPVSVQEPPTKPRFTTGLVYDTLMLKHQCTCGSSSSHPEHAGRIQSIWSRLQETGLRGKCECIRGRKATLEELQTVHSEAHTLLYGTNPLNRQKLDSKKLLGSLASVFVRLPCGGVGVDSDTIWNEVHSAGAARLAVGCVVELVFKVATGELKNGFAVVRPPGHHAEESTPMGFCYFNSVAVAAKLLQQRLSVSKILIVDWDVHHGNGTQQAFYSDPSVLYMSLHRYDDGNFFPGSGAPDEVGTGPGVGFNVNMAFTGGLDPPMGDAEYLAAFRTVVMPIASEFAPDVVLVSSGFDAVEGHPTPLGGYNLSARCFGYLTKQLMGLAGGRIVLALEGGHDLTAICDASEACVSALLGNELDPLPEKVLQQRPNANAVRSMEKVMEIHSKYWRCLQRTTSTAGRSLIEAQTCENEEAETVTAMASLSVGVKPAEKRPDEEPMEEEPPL
# U-266 = test: Antiproliferative activity against human U-266 cells assessed as cell growth inhibition incubated for 48 hrs by CCK-8 assay; type: functional, cell-based; details: U-266, 48 h
# K562 = test: Antiproliferative activity against human K562 cells assessed as cell growth inhibition incubated for 48 hrs by CCK-8 assay; type: functional, cell-based; details: K562, 48 h
# [2] = biological target: Histone deacetylase (Homo sapiens) (UniProt Q13547+O15379+Q9UBN7+Q92769+Q9UQL6+Q8WUI4+Q9BY41+Q96DB2+P56524+Q9UKV0+Q969S8); test: Inhibition of HDAC in human RS4-11 cells assessed as upregulation of histone H3 acetylation by Western blot assay; type: cell-based
# [3] = biological target: T3, Protein deacetylase HDAC6 (Homo sapiens); test: Inhibition of HDAC6 in human RS4-11 cells assessed as effect on alpha-tubulin acetylation by Western blot assay; type: cell-based
SMILES,Activity (HCT-116),pIC50 (Histone deacetylase 11),pIC50 (Histone deacetylase 2),pIC50 (RPMI-8226),Activity (A549),Activity (Histone deacetylase 1),pIC50 (RS4-11),pIC50 (Histone deacetylase 9),Activity (HeLa),pIC50 (Histone deacetylase 7),Activity [1],pIC50 (Histone deacetylase 4),pIC50 (U-266),pIC50 (K562),inhibition [2],Activity [3]
Nc1ccc(F)cc1NC(=O)c1ccc(CNC(=O)/C=C/c2cccnc2)cc1,inactive,< 5.70,6.32,5.38,inactive,inactive,6.09,< 5.70,inactive,< 5.70,inactive,< 5.70,5.32,4.67,,
Nc1ccccc1NC(=O)c1cn(CCOCCOCCOCCNc2cccc3c2C(=O)N(C2CCC(=O)NC2=O)C3=O)nn1 (stereo unspecified),inactive,,,,inactive,inactive,,,inactive,,inactive,,,,,
Nc1cc(F)ccc1NC(=O)CCCCNc1cccc2c1C(=O)N(C1CCC(=O)NC1=O)C2=O (stereo unspecified),inactive,,,,inactive,inactive,,,inactive,,inactive,,,,,
O=C(CCCCCCNc1cccc2c1C(=O)N(C1CCC(=O)NC1=O)C2=O)NCCS (stereo unspecified),inactive,,,,inactive,inactive,,,inactive,,inactive,,,,,
O=C(CCCCCCNc1cccc2c1C(=O)N(C1CCC(=O)NC1=O)C2=O)NO (stereo unspecified),inactive,,,,inactive,inactive,,,inactive,,inactive,,,,Active,inactive
O=C1CCC(N2C(=O)c3cccc(NCc4ccc(C(=O)NCCS)cc4)c3C2=O)C(=O)N1 (stereo unspecified),inactive,,,,inactive,inactive,,,inactive,,inactive,,,,,
Nc1ccccc1NC(=O)CCCCCNc1cccc2c1C(=O)N(C1CCC(=O)NC1=O)C2=O (stereo unspecified),inactive,,,,inactive,inactive,,,inactive,,inactive,,,,,
O=C1CCC(N2C(=O)c3cccc(NCCOCCn4cc(C(=O)NO)nn4)c3C2=O)C(=O)N1 (stereo unspecified),inactive,,,,inactive,inactive,,,inactive,,inactive,,,,,
O=C(CCCCNc1cccc2c1C(=O)N(C1CCC(=O)NC1=O)C2=O)NCCS (stereo unspecified),inactive,,,,inactive,inactive,,,inactive,,inactive,,,,,
